Results on six molecules are retold here after ChEMBL document CHEMBL4052745 (Bioorg Med Chem, 2017).

The EC50 is the concentration giving half of the maximal effect. Low values mean an effect from little substance, high ones a need for much substance.

≈ marks a conversion by molar mass, not a printed value.

One data set relates to Bacillus anthracis. As to the kind of experiment: Bactericidal activity against Bacillus anthracis. Type of data set: functional.
Settings: not given
In the case of `CC(C)NC(=O)N[C@H](CNC(=O)N[C@@H](CCCCN)CNC(=O)N[C@H](CNC(=O)N[C@H](CCNC(=O)N[C@@H](CCCCN)CNC(=O)N[C@H](CNC(=O)N[C@@H](CCCCN)CNC(=O)N[C@H](CCC(N)=O)C(C)C)Cc1c[nH]c2ccccc12)C(C)C)Cc1c[nH]c2ccccc12)C(C)C`, the concentration for a half-maximal effect (EC50) was in the range of 7 to 10 µg/mL (≈ 4.99 to 7.13 µM).

Tested on in the next data set: not listed separately
As to the kind of experiment: Cytotoxicity against mouse RAW264.7 cells after 4 hrs by MTT assay. Type of data set: cell-based. The note with it: read-out: TD50. (Formazan colour is commonly taken as a measure of viable cells.)
`CC(C)NC(=O)N[C@H](CNC(=O)N[C@@H](CCCCN)CNC(=O)N[C@H](CNC(=O)N[C@H](CNC(=O)N[C@@H](CCCCN)CNC(=O)N[C@H](CNC(=O)N[C@@H](CCCCN)CNC(=O)N[C@H](CNC(N)=S)C(C)C)Cc1c[nH]c2ccccc12)C(C)C)Cc1c[nH]c2ccccc12)C(C)C`: the CC50 at 4 h worked out at 21 µg/mL (≈ 14.9 µM).

On to `CC(C)NC(=O)N[C@H](CNC(=O)N[C@@H](CCCCN)CNC(=O)N[C@H](CNC(=O)N[C@H](CNC(=O)N[C@@H](CCCCN)CNC(=O)N[C@H](CNC(=O)N[C@@H](CCCCN)CNC(=N)N[C@H](CCC(N)=O)C(C)C)Cc1c[nH]c2ccccc12)C(C)C)Cc1c[nH]c2ccccc12)C(C)C`, for which the CC50 at 4 h is 15 µg/mL (≈ 10.8 µM).

As to `CC(C)NC(=O)N[C@H](CNC(=S)N[C@@H](CCCCN)CNC(=O)N[C@H](CNC(=O)N[C@H](CNC(=O)N[C@@H](CCCCN)CNC(=O)N[C@H](CNC(=O)N[C@@H](CCCCN)CNC(=O)N[C@H](CNC(N)=O)C(C)C)Cc1c[nH]c2ccccc12)C(C)C)Cc1c[nH]c2ccccc12)C(C)C`, the CC50 at 4 h is 26 µg/mL (≈ 18.5 µM).

Turning to `CC(C)NC(=O)N[C@H](CNC(=O)N[C@@H](CCCCN)CNC(=O)N[C@H](CNC(=O)N[C@H](CNC(=O)N[C@@H](CCCCN)CNC(=O)N[C@H](CNC(=O)N[C@@H](CCCCN)CNC(=S)N[C@H](CCC(N)=O)C(C)C)Cc1c[nH]c2ccccc12)C(C)C)Cc1c[nH]c2ccccc12)C(C)C`, the CC50 at 4 h amounted to 20.5 µg/mL (≈ 14.6 µM).

As for `CC(C)NC(=O)N[C@H](CNC(=O)N[C@@H](CCCCN)CNC(=O)N[C@H](CNC(=O)N[C@H](CNC(=S)N[C@@H](CCCCN)CNC(=O)N[C@H](CNC(=O)N[C@@H](CCCCN)CNC(=O)N[C@H](CNC(N)=O)C(C)C)Cc1c[nH]c2ccccc12)C(C)C)Cc1c[nH]c2ccccc12)C(C)C`, the CC50 at 4 h came to 28 µg/mL (≈ 19.9 µM).
